Measurements taken from patent US6203824A (priority 1992, dated 2001).
Where “and” joins values, the source holds several entries; their conditions need not be identical. Equal entries are not always repeated. Where two headings read alike, the source gives them in different places.

Legend:
Trogoderma granarium = conditions: in vivo; cited from earlier work
Tribolium confusum = conditions: in vivo; cited from earlier work
Tenebroides mauritanicus = conditions: in vivo; cited from earlier work
Sitophilus oryzae = conditions: in vivo; cited from earlier work
Sitophilus granarius = conditions: in vivo; cited from earlier work
[1] = tested on: Oryzsephilus surinamensis; conditions: in vivo; cited from earlier work
Rhyzopertha dominica = conditions: in vivo; cited from earlier work
[2] = 25° C.; cited from earlier work
Tribolium castaneum = conditions: in vivo; cited from earlier work
Mice = conditions: cited from earlier work
[3] = moist soil
Rabbits = conditions: rabbit, in vivo; cited from earlier work
Cold blooded animals = conditions: in vivo; cited from earlier work
L. destructor = conditions: in vivo
S. oryzae [4] = tested on: S. oryzae; set-up: species or system Sitophilus oryzae; conditions: in vivo
[5] = format: physicochemical; conditions: empty vial, 15 min
R. dominica = conditions: in vivo
[6] = tested on: grains of Australian standard white wheat and malting barley; conditions: in vivo
B. tyroni [7] = conditions: queensland fruit fly, in vivo, inhaled
mould = conditions: in vivo
S. oryzae [8] = conditions: in vivo
B. tyroni [9] = test: whole plant or invertebrate; conditions: Bactrocera, inhaled or nasal, read-out: Corrected mortality
[10] = tested on: Coptotermes acinaciformis; test: whole plant or invertebrate; conditions: inhaled or nasal, 24 h, read-out: Corrected mortality
[11] = tested on: Liposcelis bostrychophilus; conditions: in vivo

Q: For `C=CC#N` [Acrylonitrile, acrylonitrile], which “LC95 (concentration x time product)” value (Trogoderma granarium) is on record?
A: 48.0

Q: What about the “LC99 (concentration x time product)” value (Tribolium confusum) of the same molecule?
A: 19.5

Q: And the “LC99 (concentration x time product)” value (Tenebroides mauritanicus)?
A: 40.0

Q: And the “LC95 (concentration x time product)” value (Sitophilus oryzae)?
A: 10.8

Q: And the “LC99 (concentration x time product)” value (Sitophilus granarius)?
A: 11.0

Q: And the “LC95 (concentration x time product)” value [1]?
A: 8.4

Q: And the “LC95 (concentration x time product)” value (Rhyzopertha dominica)?
A: 8.4

Q: With `S=C=S` [Carbon disulphide, carbon disulphide] as the molecule, how does the “LC95 (concentration x time product)” value (Trogoderma granarium) read?
A: 696.0

Q: What about the solubility in water [2] of the same molecule?
A: 2.2 grams per litre

Q: What about the “LC99 (concentration x time product)” value (Tribolium confusum) of the same molecule?
A: 560.00

Q: And the “LC99 (concentration x time product)” value (Tenebroides mauritanicus)?
A: 828.00

Q: And the “LC95 (concentration x time product)” value (Sitophilus oryzae)?
A: 300.0

Q: And the “LC99 (concentration x time product)” value (Sitophilus granarius)?
A: 325.0

Q: And the “LC95 (concentration x time product)” value [1]?
A: 408.0

Q: What about the “LC95 (concentration x time product)” value (Rhyzopertha dominica) of the same molecule?
A: 294.0

Q: Which results are given for `ClC(Cl)(Cl)Cl` [Carbon tetrachloride, carbon tetrachloride]?
A: LC99 (concentration x time product) (Tribolium confusum): 025.0; LD50 (concentration x time product) (Tenebroides mauritanicus): 400.00; LC95 (concentration x time product) (Sitophilus oryzae): 220.0; LC99 (concentration x time product) (Sitophilus granarius): 495.0; LC90 (concentration x time product) (Tribolium castaneum): 600.0

Q: With `BrCCBr` [Ethylene dibromide, ethylene dibromide] as the molecule, how does the “LC95 (concentration x time product)” value (Trogoderma granarium) read?
A: 80.0

Q: What about the “LC99 (concentration x time product)” value (Tribolium confusum) of the same molecule?
A: 31.0

Q: What about the “LC99 (concentration x time product)” value (Tenebroides mauritanicus) of the same molecule?
A: 125.00

Q: What about the “LC95 (concentration x time product)” value (Sitophilus oryzae) of the same molecule?
A: 60.0

Q: And the “LC99 (concentration x time product)” value (Sitophilus granarius)?
A: 34.5

Q: And the “LD95 (concentration x time product)” value (Tribolium castaneum)?
A: 22.0

Q: And the “LC95 (concentration x time product)” value [1]?
A: 19.2

Q: And the “LC95 (concentration x time product)” value (Rhyzopertha dominica)?
A: 37.2

Q: With `ClCCCl` [Ethylene dichloride, ethylene dichloride] as the molecule, how does the “LC95 (concentration x time product)” value (Trogoderma granarium) read?
A: 2080.5

Q: What about the “LC99 (concentration x time product)” value (Tribolium confusum) of the same molecule?
A: 365.0

Q: What about the “LC99 (concentration x time product)” value (Tenebroides mauritanicus) of the same molecule?
A: 1728.0

Q: And the “LC95 (concentration x time product)” value (Sitophilus oryzae)?
A: 738.0

Q: What about the “LC99 (concentration x time product)” value (Sitophilus granarius) of the same molecule?
A: 230.0

Q: And the “LC90 (concentration x time product)” value (Tribolium castaneum)?
A: 462.0

Q: What about the “LC95 (concentration x time product)” value [1] of the same molecule?
A: 462.0

Q: And the “LC95 (concentration x time product)” value (Rhyzopertha dominica)?
A: 636.0

Q: For `C1CO1` [Ethylene oxide, ethylene oxide], which “LC95 (concentration x time product)” value (Trogoderma granarium) is on record?
A: 176.0

Q: And the “LC99 (concentration x time product)” value (Tribolium confusum)?
A: 127.5

Q: And the “LC99 (concentration x time product)” value (Tenebroides mauritanicus)?
A: 175.0

Q: And the “LC95 (concentration x time product)” value (Sitophilus oryzae)?
A: 62.0

Q: And the “LC99 (concentration x time product)” value (Sitophilus granarius)?
A: 36.0

Q: What about the “LD99 (concentration x time product)” value (Tribolium castaneum) of the same molecule?
A: 135.0

Q: What about the “LC95 (concentration x time product)” value [1] of the same molecule?
A: 60.0

Q: And the “LC95 (concentration x time product)” value (Rhyzopertha dominica)?
A: 69.6

Q: Which “LC95 (concentration x time product)” value (Trogoderma granarium) does the source give for `CBr` [Methyl bromide, methyl bromide] here?
A: 136.0

Q: What about the solubility in water [2] of the same molecule?
A: 13.4 grams per litre

Q: What about the “LC99 (concentration x time product)” value (Tribolium confusum) of the same molecule?
A: 64.0

Q: What about the “LC99 (concentration x time product)” value (Tenebroides mauritanicus) of the same molecule?
A: 115.0

Q: And the “LD99 (concentration x time product)” value (Sitophilus oryzae)?
A: 30.0

Q: And the “LC99 (concentration x time product)” value (Sitophilus granarius)?
A: 28.0

Q: And the “LD95 (concentration x time product)” value (Tribolium castaneum)?
A: 62.0

Q: And the “LC95 (concentration x time product)” value [1]?
A: 40.8

Q: What about the “LC95 (concentration x time product)” value (Rhyzopertha dominica) of the same molecule?
A: 33.0

Q: For `P` [Phosphine, phosphine], which “100% mort. (concentration x time product)” value (Trogoderma granarium) is on record?
A: 331.0

Q: And the “LC99 (concentration x time product)” value (Tribolium confusum)?
A: 0.48

Q: And the “LC99 (concentration x time product)” value (Tenebroides mauritanicus)?
A: ~5.0

Q: And the “LD99 (concentration x time product)” value (Sitophilus oryzae)?
A: 0.36

Q: And the “LC99 (concentration x time product)” value (Sitophilus granarius)?
A: 1.01

Q: And the “LC90 (concentration x time product)” value (Tribolium castaneum)?
A: 11.5

Q: And the “LD99 (concentration x time product)” value [1]?
A: 0.96

Q: And the “LD99 (concentration x time product)” value (Rhyzopertha dominica)?
A: 0.6

Q: For `O=S(=O)(F)F` [Sulphuryl fluoride, sulphuryl fluoride], which “LC99 (concentration x time product)” value (Tribolium confusum) is on record?
A: 55.0

Q: And the “LC99 (concentration x time product)” value (Tenebroides mauritanicus)?
A: 81.5

Q: And the “LC99 (concentration x time product)” value (Sitophilus granarius)?
A: 17.5

Q: What does the source list for `O=C=S` [carbonyl sulphide]?
A: time to death (Mice; 1200 ppm): 35 min; time to death (Mice; 2900 ppm): 11/2; time to death (Mice; 8900 ppm): 3/4; concentration in air above which mice die quickly (Mice; mouse, in vivo): more than 0.3 per cent; effects after exposure (Mice; mouse, in vivo): no perceptible effects; concentration as per cent of the calculated initial concentration ([3]; 2 min): 62 per cent; concentration as per cent of the calculated initial concentration ([3]; 5 h): 18 per cent; concentration as per cent of the calculated initial concentration ([3]; 20 h): 5.9 per cent; concentration in air above which rabbits die quickly (Rabbits): more than 0.3 per cent; effects after exposure (Rabbits): some ill effects; resistance compared with warm-blooded animals (Cold blooded animals): more resistance; Minimum effective tested dose (L. destructor): 120; Corrected mortality (L. destructor; mite, inhaled, 6 h): 100%; solubility in water [2]: 1.4 grams per litre; Number of insects emerging from culture (S. oryzae [4]): 2; recovery of the calculated applied dose [5]: 98.4 per cent; No. emerging (R. dominica): 2; control of all immature stages of R. dominica, on average (R. dominica; rhyzopertha dominica, 24 h): 93.4 per cent; % Germination, final count (10 days) [6]: 96% and 93% and 92%; % Germination, first count (4 days) [6]: 93% and 91% and 89%; effect on seed germination or vigour [6]: no effect on seed germination or vigour was detected; Corrected mortality (B. tyroni [7]; 6 h): 100%; Corrected mortality (B. tyroni [7]; 24 h): 100%; discolouration of wheat by mould (mould): no discolouration occurred; No. emerged (S. oryzae [8]): 2; mortality at 120 mg h/L (B. tyroni [9]; 6 h): 12.6%; mortality at 150 mg h/L (B. tyroni [9]; 6 h): 13.5%; mortality at 210 mg h/L (B. tyroni [9]; 6 h): 100%; mortality at 300 mg h/L (B. tyroni [9]; 6 h): 91.7%; mortality at 360 mg h/L (B. tyroni [9]; 6 h): 100%; mortality at 480 mg h/L (B. tyroni [9]; 6 h): 99.2%; mortality at 600 mg h/L (B. tyroni [9]; 6 h): 100%; mortality at 720 mg h/L (B. tyroni [9]; 6 h): 99.7%; mortality at 870 mg h/L (B. tyroni [9]; 6 h): 93.3%; mortality at 120 mg h/L (B. tyroni [9]; 24 h): 37.1%; mortality at 180 mg h/L (B. tyroni [9]; 24 h): 4.9%; mortality at 240 mg h/L (B. tyroni [9]; 24 h): 19.5%; mortality at 366 mg h/L (B. tyroni [9]; 24 h): 53.3%; mortality at 420 mg h/L (B. tyroni [9]; 24 h): 88.8%; mortality at 480 mg h/L (B. tyroni [9]; 24 h): 98.3%; mortality at 540 mg h/L (B. tyroni [9]; 24 h): 98.3%; mortality at 600 mg h/L (B. tyroni [9]; 24 h): 100%; mortality at 192 mg h/L [10]: 0%; mortality at 600 mg h/L [10]: 100%; Minimum effective tested dose [11]: 22.5; psocids dead after exposure [11]: all 200 of the psocids were dead
